The results in this text go back to US8101754B2, “Triazole compounds suitable for treating disorders that respond to modulation of the dopamine D3 receptor” (Abbott GmbH & Co. KG, priority 2004, dated 2012).

The target in data set [1] is T1, human dopamine D2L receptors (long isoform) (Homo sapiens, UniProt P14416).
T1 construct: expressed in transfected cells; membranes)
The data set can be described thus: Dopamine D2L receptor binding ([125I] iodospiperone), basis of selectivity Ki(D2)/Ki(D3). The following applies: Table 7; compounds of formula IIa. Here is the method: The substance to be tested was either dissolved in methanol/Chremophor® (BASF-AG) or in dimethyl sulfoxide and then diluted with water to the desired concentration. […] Each assay mixture was run in triplicate. The incubation buffer contained 50 mM tris, 120 mM NaCl, 5 mM KCl, 2 mM CaCl2, 2 mM MgCl2 and 0.1% bovine serum albumin. The buffer was adjusted to pH 7.4 with HCl. Measurement and Analysis: After having been incubated at 25° C. for 60 minutes, the assay mixtures were filtered through a Wathman GF/B glass fiber filter under vacuum using a cell collecting device. The filters were transferred to scintillation viols using a filter transfer system. After 4 ml of Ultima Gold® (Packard) have been added, the samples were shaken for one hour and the radioactivity was then counted in a Beta-Counter (Packard, Tricarb 2000 or 2200CA). The cpm values were converted into dpm using a standard quench series and the program belonging to the instrument. The inhibition curves were analyzed by means of iterative nonlinear regression analysis using the Statistical Analysis System (SAS) which is similar to the “LIGAND” program described by Munson and Rodbard.

Data set [2] is described as follows: Concentration of compounds in plasma and brain following oral dosing. It is filed as in vivo, Sprague-Dawley rats. Conditions: Table 7; male rats, 10 mg/kg orally by gavage. As to the method: 2. Determination of the Concentration of Compounds in Plasma and Brain Following Dosing of Compounds in Animals
Male Sprague-Dawley rats were used in this study (2 to 4 per experiment). The animals were fasted overnight prior to dosing and throughout the duration of the study but were permitted water ad libitum.
Each rat received a 10 mg/kg (5 mL/kg) dose orally by gavage. At 0.5, 3 and 8 hours after drug administration, three animals were put under deep anesthesia using isoflurane and euthanized by bleeding (cardiac puncture) under deep isoflurane anesthesia. EDTA blood samples and brain tissue will be collected from each rat. Upon collection, the samples were promptly placed in an ice bath, and within 2 hours after sample collection, the blood was centrifuged at about 4° C. The resulting brain and plasma samples were placed in clean glass tubes and stored in a freezer until analysis.
The plasma samples were assayed for parent compound using appropriate liquid chromatography—mass spectrometry procedures. The results for compounds I are given in tables 2, and illustrate the high brain concentrations attainable with the compounds of the invention.

In data set [3] the target is T2, human dopamine D3 receptors (Homo sapiens, UniProt P35462).
T2 construct: expressed in transfected cells; membranes)
T2 sequence (P35462 whole entry): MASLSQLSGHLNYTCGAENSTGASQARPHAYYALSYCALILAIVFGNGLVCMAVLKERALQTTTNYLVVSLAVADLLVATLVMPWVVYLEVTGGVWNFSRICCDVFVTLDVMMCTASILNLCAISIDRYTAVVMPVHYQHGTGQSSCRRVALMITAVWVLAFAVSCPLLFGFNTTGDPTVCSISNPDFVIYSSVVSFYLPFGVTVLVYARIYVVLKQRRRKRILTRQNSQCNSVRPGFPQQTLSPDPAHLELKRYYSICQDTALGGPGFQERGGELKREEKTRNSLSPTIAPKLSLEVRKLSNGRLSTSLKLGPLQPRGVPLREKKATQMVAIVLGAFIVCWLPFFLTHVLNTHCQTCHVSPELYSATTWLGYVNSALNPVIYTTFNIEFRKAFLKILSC
The data set can be described thus: Dopamine D3 receptor binding ([125I]-iodosulpride displacement). As to the method:
The substance to be tested was either dissolved in methanol/Chremophor® (BASF-AG) or in dimethyl sulfoxide and then diluted with water to the desired concentration.
Each assay mixture was run in triplicate.
The incubation buffer contained 50 mM tris, 120 mM NaCl, 5 mM KCl, 2 mM CaCl2, 2 mM MgCl2 and 0.1% bovine serum albumin, 10 μM quinolone and 0.1% ascorbic acid (prepared fresh daily). The buffer was adjusted to pH 7.4 with HCl.
Measurement and Analysis:
After having been incubated at 25° C. for 60 minutes, the assay mixtures were filtered through a Wathman GF/B glass fiber filter under vacuum using a cell collecting device. The filters were transferred to scintillation viols using a filter transfer system. After 4 ml of Ultima Gold® (Packard) have been added, the samples were shaken for one hour and the radioactivity was then counted in a Beta-Counter (Packard, Tricarb 2000 or 2200CA). The cpm values were converted into dpm using a standard quench series and the program belonging to the instrument.
The inhibition curves were analyzed by means of iterative nonlinear regression analysis using the Statistical Analysis System (SAS) which is similar to the “LIGAND” program described by Munson and Rodbard.

Setting [4] is: Table 7, compounds of formula IIa, read-out: D3.
Setting [5] is: compounds II, read-out: Ki D3 values.

pKi: −log10 of the molar value. Read-outs that look alike come from different tables or passages of the source.

T1 sequence (P14416 whole entry, canonical isoform): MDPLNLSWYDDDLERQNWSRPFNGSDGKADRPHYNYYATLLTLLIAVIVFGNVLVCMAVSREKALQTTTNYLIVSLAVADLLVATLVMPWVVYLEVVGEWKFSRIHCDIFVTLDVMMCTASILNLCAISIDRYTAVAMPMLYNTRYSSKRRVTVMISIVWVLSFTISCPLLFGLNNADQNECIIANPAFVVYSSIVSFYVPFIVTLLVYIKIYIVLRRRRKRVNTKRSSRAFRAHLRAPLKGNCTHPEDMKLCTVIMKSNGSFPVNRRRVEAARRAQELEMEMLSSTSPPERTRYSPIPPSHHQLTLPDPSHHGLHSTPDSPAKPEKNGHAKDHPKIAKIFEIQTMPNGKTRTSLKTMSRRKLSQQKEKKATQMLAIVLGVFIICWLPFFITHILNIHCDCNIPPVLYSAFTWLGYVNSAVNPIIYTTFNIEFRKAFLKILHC

Consider `Cl.Cn1cnnc1SCCCN1CCN(c2cc(C(F)(F)F)nc(C(C)(C)C)n2)CC1`, for which the melting point (as a rule, the temperature of the solid-liquid transition) was 92 to 95 °C.
Molecule `CCc1nnc(SCCCN2CCN(c3cc(C(F)(F)F)nc(C(C)(C)C)n3)CC2)n1C.Cl` [c.15, 2-tert-Butyl-4-{4-[3-(4-methyl-5-ethyl-4H-[1,2,4]triazol-3-ylsulfanyl)-propyl]-piperazin-1-yl}-6-trifluoromethyl-pyrimidine hydrochloride] yielded a D2/D3 in data set [1] of 364. This molecule also yielded a Brain level in data set [2] of 1410 ng/g. Further, the results for the pKi in data set [3] (setting [4]) and in data set [3] (setting [5]) were 8.70 and above 8.30, respectively.
Molecule `Cl.Cn1c(SCCCN2CCN(c3cc(C(F)(F)F)nc(C(C)(C)C)n3)CC2)nnc1C1CC1` [c.17, 2-tert-Butyl-4-{4-[3-(4-methyl-5-cyclopropyl-4H-[1,2,4]triazol-3-ylsulfanyl)-propyl]-piperazin-1-yl}-6-trifluoromethyl-pyrimidine hydrochloride] showed a melting point of 182 to 184 °C. The D2/D3 in data set [1] turned out to be 293. Moreover, the pKi in data set [3] (setting [4]) is 9.05. The pKi in data set [3] (setting [5]) was above 8.30.
